Laboratory results from patent US6358885B1, “Substituted phenylheterocyclic herbicides” (Mississippi State University, priority 1992, dated 2002).

Columns and labels:
Test in all cases: Test B preemergence/postemergence greenhouse plant response rating 0 to 10
Conditions in all cases: 0 to 10 scale
barley = assay type: in vivo, Hordeum vulgare
How it was run: (§1)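 Test chemicals were sprayed onto freshly planted seed and, concurrently, onto young plants between the one and four leaf stage. After a twelve- to sixteen-day greenhouse period, each species was visually compared with untreated controls.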

barnyardgrass = assay type: in vivo, Echinochloa crus-galli
How it was run: as §1

bedstraw = assay type: in vivo, Galium aparine
How it was run: as §1

blackgrass = assay type: in vivo, Alopecurus myosuroides
How it was run: as §1

cheatgrass = assay type: in vivo, Bromus secalinus
How it was run: as §1

chickweed = assay type: in vivo, Stellaria media
How it was run: as §1

cocklebur = assay type: in vivo, Xanthium pensylvanicum
How it was run: as §1

corn = assay type: in vivo, Zea mays
How it was run: as §1

cotton = assay type: in vivo, Gossypium hirsutum
How it was run: as §1

crabgrass = assay type: in vivo, Digitaria spp.
How it was run: as §1

giant foxtail = assay type: in vivo, Setaria faberii
How it was run: as §1

lambsquarters = assay type: in vivo, Chenopodium album
How it was run: as §1

morningglory = assay type: in vivo, Ipomoea hederacea
How it was run: as §1

rape = assay type: in vivo, Brassica napus
How it was run: as §1

rice = assay type: in vivo, Oryza sativa
How it was run: as §1

sorghum = assay type: in vivo, Sorghum bicolor
How it was run: as §1

soybean = assay type: in vivo, Glycine max
How it was run: as §1

sugar beet = assay type: in vivo, Beta vulgaris
How it was run: as §1

velvetleaf = assay type: in vivo, Abutilon theophrasti
How it was run: as §1

wheat = assay type: in vivo, Triticum aestivum
How it was run: as §1

wild buckwheat = assay type: in vivo, Polygonum convolvulus
How it was run: as §1

wild oat = assay type: in vivo, Avena fatua
How it was run: as §1

purple nutsedge = assay type: in vivo, Cyperus rotundus
How it was run: as §1

C#CCOC(=O)COc1cc(-c2nn3c(c2Cl)CCCC3)c(F)cc1Cl [Compound 61]
Plant response rating, Barley (barley; POSTEMERGENCE, Rate 10 g/ha): 1
Plant response rating, Barley (barley; POSTEMERGENCE, Rate 50 g/ha): 2
Plant response rating, Barley (barley; PREEMERGENCE, Rate 10 g/ha): 0
Plant response rating, Barley (barley; PREEMERGENCE, Rate 50 g/ha): 0
Plant response rating, Barnyardgrass (barnyardgrass; POSTEMERGENCE, Rate 10 g/ha): 2
Plant response rating, Barnyardgrass (barnyardgrass; POSTEMERGENCE, Rate 50 g/ha): 2
Plant response rating, Barnyardgrass (barnyardgrass; PREEMERGENCE, Rate 10 g/ha): 0
Plant response rating, Barnyardgrass (barnyardgrass; PREEMERGENCE, Rate 50 g/ha): 0
Plant response rating, Bedstraw (bedstraw; POSTEMERGENCE, Rate 10 g/ha): 5
Plant response rating, Bedstraw (bedstraw; POSTEMERGENCE, Rate 50 g/ha): 9
Plant response rating, Bedstraw (bedstraw; PREEMERGENCE, Rate 10 g/ha): 0
Plant response rating, Bedstraw (bedstraw; PREEMERGENCE, Rate 50 g/ha): 5
Plant response rating, Blackgrass (blackgrass; POSTEMERGENCE, Rate 10 g/ha): 2
Plant response rating, Blackgrass (blackgrass; POSTEMERGENCE, Rate 50 g/ha): 3
Plant response rating, Blackgrass (blackgrass; PREEMERGENCE, Rate 10 g/ha): 0
Plant response rating, Blackgrass (blackgrass; PREEMERGENCE, Rate 50 g/ha): 2
Plant response rating, Cheatgrass (cheatgrass; POSTEMERGENCE, Rate 10 g/ha): 2
Plant response rating, Cheatgrass (cheatgrass; POSTEMERGENCE, Rate 50 g/ha): 3
Plant response rating, Cheatgrass (cheatgrass; PREEMERGENCE, Rate 10 g/ha): 0
Plant response rating, Cheatgrass (cheatgrass; PREEMERGENCE, Rate 50 g/ha): 2
Plant response rating, Chickweed (chickweed; POSTEMERGENCE, Rate 10 g/ha): 2
Plant response rating, Chickweed (chickweed; POSTEMERGENCE, Rate 50 g/ha): 2
Plant response rating, Chickweed (chickweed; PREEMERGENCE, Rate 50 g/ha): 3
Plant response rating, Cocklebur (cocklebur; POSTEMERGENCE, Rate 10 g/ha): 4
Plant response rating, Cocklebur (cocklebur; POSTEMERGENCE, Rate 50 g/ha): 8
Plant response rating, Cocklebur (cocklebur; PREEMERGENCE, Rate 10 g/ha): 0
Plant response rating, Cocklebur (cocklebur; PREEMERGENCE, Rate 50 g/ha): 0
Plant response rating, Corn (corn; POSTEMERGENCE, Rate 10 g/ha): 3
Plant response rating, Corn (corn; POSTEMERGENCE, Rate 50 g/ha): 5
Plant response rating, Corn (corn; PREEMERGENCE, Rate 50 g/ha): 0
Plant response rating, Cotton (cotton; POSTEMERGENCE, Rate 10 g/ha): 9
Plant response rating, Cotton (cotton; POSTEMERGENCE, Rate 50 g/ha): 10
Plant response rating, Cotton (cotton; PREEMERGENCE, Rate 10 g/ha): 0
Plant response rating, Cotton (cotton; PREEMERGENCE, Rate 50 g/ha): 0
Plant response rating, Crabgrass (crabgrass; POSTEMERGENCE, Rate 10 g/ha): 2
Plant response rating, Crabgrass (crabgrass; POSTEMERGENCE, Rate 50 g/ha): 2
Plant response rating, Crabgrass (crabgrass; PREEMERGENCE, Rate 10 g/ha): 0
Plant response rating, Crabgrass (crabgrass; PREEMERGENCE, Rate 50 g/ha): 0
Plant response rating, Giant foxtail (giant foxtail; POSTEMERGENCE, Rate 10 g/ha): 2
Plant response rating, Giant foxtail (giant foxtail; POSTEMERGENCE, Rate 50 g/ha): 2
Plant response rating, Giant foxtail (giant foxtail; PREEMERGENCE, Rate 10 g/ha): 0
Plant response rating, Giant foxtail (giant foxtail; PREEMERGENCE, Rate 50 g/ha): 0
Plant response rating, Lambsquarter (lambsquarters; POSTEMERGENCE, Rate 10 g/ha): 9
Plant response rating, Lambsquarter (lambsquarters; POSTEMERGENCE, Rate 50 g/ha): 9
Plant response rating, Lambsquarter (lambsquarters; PREEMERGENCE, Rate 50 g/ha): 9
Plant response rating, Morningglory (morningglory; POSTEMERGENCE, Rate 10 g/ha): 7
Plant response rating, Morningglory (morningglory; POSTEMERGENCE, Rate 50 g/ha): 10
Plant response rating, Morningglory (morningglory; PREEMERGENCE, Rate 50 g/ha): 3
Plant response rating, Rape (rape; POSTEMERGENCE, Rate 10 g/ha): 1
Plant response rating, Rape (rape; POSTEMERGENCE, Rate 50 g/ha): 8
Plant response rating, Rape (rape; PREEMERGENCE, Rate 50 g/ha): 4
Plant response rating, Rice (rice; POSTEMERGENCE, Rate 10 g/ha): 2
Plant response rating, Rice (rice; POSTEMERGENCE, Rate 50 g/ha): 4
Plant response rating, Rice (rice; PREEMERGENCE, Rate 50 g/ha): 0
Plant response rating, Sorghum (sorghum; POSTEMERGENCE, Rate 10 g/ha): 2
Plant response rating, Sorghum (sorghum; POSTEMERGENCE, Rate 50 g/ha): 3
Plant response rating, Sorghum (sorghum; PREEMERGENCE, Rate 50 g/ha): 0
Plant response rating, Soybean (soybean; POSTEMERGENCE, Rate 10 g/ha): 2
Plant response rating, Soybean (soybean; POSTEMERGENCE, Rate 50 g/ha): 3
Plant response rating, Soybean (soybean; PREEMERGENCE, Rate 50 g/ha): 0
Plant response rating, Sugar beet (sugar beet; POSTEMERGENCE, Rate 10 g/ha): 10
Plant response rating, Sugar beet (sugar beet; POSTEMERGENCE, Rate 50 g/ha): 10
Plant response rating, Sugar beet (sugar beet; PREEMERGENCE, Rate 50 g/ha): 10
Plant response rating, Velvetleaf (velvetleaf; POSTEMERGENCE, Rate 10 g/ha): 2
Plant response rating, Velvetleaf (velvetleaf; POSTEMERGENCE, Rate 50 g/ha): 10
Plant response rating, Velvetleaf (velvetleaf; PREEMERGENCE, Rate 50 g/ha): 10
Plant response rating, Wheat (wheat; POSTEMERGENCE, Rate 10 g/ha): 2
Plant response rating, Wheat (wheat; POSTEMERGENCE, Rate 50 g/ha): 3
Plant response rating, Wheat (wheat; PREEMERGENCE, Rate 50 g/ha): 0
Plant response rating, Wild buckwheat (wild buckwheat; POSTEMERGENCE, Rate 10 g/ha): 3
Plant response rating, Wild buckwheat (wild buckwheat; POSTEMERGENCE, Rate 50 g/ha): 9
Plant response rating, Wild buckwheat (wild buckwheat; PREEMERGENCE, Rate 50 g/ha): 0
Plant response rating, Wild oat (wild oat; POSTEMERGENCE, Rate 10 g/ha): 1
Plant response rating, Wild oat (wild oat; POSTEMERGENCE, Rate 50 g/ha): 2
Plant response rating, Wild oat (wild oat; PREEMERGENCE, Rate 50 g/ha): 2
Plant response rating, Nutsedge (purple nutsedge; POSTEMERGENCE, Rate 10 g/ha): 0
Plant response rating, Nutsedge (purple nutsedge; POSTEMERGENCE, Rate 50 g/ha): 2
Plant response rating, Nutsedge (purple nutsedge; PREEMERGENCE, Rate 50 g/ha): 10
